# Source: PMC12749626, “Expediting hit-to-lead progression in drug discovery through reaction prediction and multi-dimensional optimization” (Nature Communications, 2025)
# Legend:
# Conditions in all cases: 10 uM; n=2
# ESTROGEN REC. α = ESTROGEN REC. α (Homo sapiens, UniProt P03372)
# PHOSPHODIESTERASE 3B = PHOSPHODIESTERASE 3B (Homo sapiens, UniProt Q13370)
# ABL1 = ABL1 (Homo sapiens, UniProt P00519)
# Chain of ABL1 (P00519 whole entry): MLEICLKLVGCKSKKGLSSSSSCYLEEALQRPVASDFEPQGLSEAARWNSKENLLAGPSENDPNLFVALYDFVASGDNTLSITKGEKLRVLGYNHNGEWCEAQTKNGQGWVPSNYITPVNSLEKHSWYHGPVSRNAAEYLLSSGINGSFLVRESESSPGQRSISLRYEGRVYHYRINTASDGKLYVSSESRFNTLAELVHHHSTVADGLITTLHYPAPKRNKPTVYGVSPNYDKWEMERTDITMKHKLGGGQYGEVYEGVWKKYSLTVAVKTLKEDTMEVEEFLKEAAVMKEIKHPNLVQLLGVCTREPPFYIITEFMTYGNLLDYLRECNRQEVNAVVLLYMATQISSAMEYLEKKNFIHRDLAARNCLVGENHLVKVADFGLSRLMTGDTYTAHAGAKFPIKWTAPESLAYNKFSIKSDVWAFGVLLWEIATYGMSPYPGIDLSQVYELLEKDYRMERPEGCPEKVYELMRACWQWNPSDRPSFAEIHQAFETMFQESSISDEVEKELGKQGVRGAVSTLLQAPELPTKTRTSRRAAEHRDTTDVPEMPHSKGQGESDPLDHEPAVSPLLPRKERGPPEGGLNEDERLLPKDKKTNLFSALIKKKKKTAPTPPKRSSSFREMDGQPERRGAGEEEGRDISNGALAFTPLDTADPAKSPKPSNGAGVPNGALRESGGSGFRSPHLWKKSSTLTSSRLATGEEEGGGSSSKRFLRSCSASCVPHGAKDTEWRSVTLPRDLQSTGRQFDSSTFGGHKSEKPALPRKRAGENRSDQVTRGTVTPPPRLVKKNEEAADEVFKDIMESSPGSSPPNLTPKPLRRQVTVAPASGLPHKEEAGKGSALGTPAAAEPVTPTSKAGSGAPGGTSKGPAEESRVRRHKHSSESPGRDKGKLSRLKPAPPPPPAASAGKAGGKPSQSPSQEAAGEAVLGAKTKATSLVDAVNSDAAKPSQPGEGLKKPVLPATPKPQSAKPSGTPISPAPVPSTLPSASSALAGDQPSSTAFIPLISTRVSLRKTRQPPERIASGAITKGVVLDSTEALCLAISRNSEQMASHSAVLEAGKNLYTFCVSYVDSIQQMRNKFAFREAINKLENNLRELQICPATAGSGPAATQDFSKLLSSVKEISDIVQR
# Chain of ESTROGEN REC. α (P03372 whole entry): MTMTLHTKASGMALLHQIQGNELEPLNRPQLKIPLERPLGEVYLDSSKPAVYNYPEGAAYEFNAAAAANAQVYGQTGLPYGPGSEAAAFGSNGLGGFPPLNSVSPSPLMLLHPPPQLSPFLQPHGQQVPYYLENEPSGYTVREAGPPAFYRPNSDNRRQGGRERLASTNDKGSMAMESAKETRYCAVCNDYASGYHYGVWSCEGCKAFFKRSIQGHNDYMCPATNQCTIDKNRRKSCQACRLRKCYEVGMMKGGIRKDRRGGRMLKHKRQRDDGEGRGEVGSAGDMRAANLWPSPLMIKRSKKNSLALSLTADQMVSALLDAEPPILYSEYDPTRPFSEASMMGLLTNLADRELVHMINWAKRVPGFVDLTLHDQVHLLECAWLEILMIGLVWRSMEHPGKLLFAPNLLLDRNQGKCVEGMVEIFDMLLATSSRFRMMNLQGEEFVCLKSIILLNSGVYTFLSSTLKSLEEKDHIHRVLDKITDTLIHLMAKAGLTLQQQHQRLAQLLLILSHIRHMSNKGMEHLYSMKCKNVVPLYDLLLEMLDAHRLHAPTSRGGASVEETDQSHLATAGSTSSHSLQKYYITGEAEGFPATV
# Chain of UniProt Q13370 (Q13370 whole entry): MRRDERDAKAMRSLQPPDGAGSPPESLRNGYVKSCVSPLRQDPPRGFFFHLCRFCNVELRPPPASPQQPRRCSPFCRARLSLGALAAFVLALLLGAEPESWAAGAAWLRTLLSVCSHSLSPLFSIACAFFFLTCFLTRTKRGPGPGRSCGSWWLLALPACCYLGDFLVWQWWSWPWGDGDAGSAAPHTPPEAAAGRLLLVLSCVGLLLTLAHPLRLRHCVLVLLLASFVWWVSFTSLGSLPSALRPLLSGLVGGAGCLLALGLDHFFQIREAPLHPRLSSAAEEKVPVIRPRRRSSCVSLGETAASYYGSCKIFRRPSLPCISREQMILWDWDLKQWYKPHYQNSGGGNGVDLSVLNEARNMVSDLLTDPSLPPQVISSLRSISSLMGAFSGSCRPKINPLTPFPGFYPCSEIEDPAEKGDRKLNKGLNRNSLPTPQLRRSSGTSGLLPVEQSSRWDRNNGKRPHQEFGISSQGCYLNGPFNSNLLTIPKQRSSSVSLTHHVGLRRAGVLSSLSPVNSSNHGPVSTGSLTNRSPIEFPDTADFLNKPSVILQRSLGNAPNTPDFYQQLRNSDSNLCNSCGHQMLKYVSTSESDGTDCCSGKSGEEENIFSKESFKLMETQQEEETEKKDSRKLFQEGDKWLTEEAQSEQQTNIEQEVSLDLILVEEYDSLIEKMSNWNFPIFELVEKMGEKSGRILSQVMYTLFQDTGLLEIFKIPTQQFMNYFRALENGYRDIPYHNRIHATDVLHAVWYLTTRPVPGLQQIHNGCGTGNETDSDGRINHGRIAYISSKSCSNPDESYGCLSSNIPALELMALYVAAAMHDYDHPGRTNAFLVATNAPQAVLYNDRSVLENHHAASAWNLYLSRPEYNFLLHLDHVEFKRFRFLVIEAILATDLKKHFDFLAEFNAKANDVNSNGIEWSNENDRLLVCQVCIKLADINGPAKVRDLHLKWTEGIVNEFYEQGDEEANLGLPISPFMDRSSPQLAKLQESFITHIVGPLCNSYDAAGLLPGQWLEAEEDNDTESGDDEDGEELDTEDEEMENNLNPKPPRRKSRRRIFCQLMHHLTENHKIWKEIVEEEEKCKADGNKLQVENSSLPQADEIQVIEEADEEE
structure (smiles),measurement,setting,value
O=C(c1ccc2nc(-c3cnccc3C3(C4CCC4)CC3)oc2c1)N1CCN(c2nc3nc(Cl)ccc3o2)CC1 [Compound 27],ESTROGEN REC. α percent activity or inhibition compared to the assay reference,ESTROGEN REC. α,-20%
same,PHOSPHODIESTERASE 3B percent activity or inhibition compared to the assay reference,PHOSPHODIESTERASE 3B,1%
same,ABL1 percent activity or inhibition compared to the assay reference,ABL1,-3%
